The results in this text go back to US9522914B2, “Azole derivative” (TAISHO PHARMACEUTICAL CO., LTD, priority 2011, dated 2016).

The target of this test is Human V1b receptor (Homo sapiens (Human), UniProt P47901). The test is described as follows: Binding Test for V1b Receptor ([3H]AVP, crude membrane preparation of 293FT cells). The following applies: inhibition of [3H]AVP binding (0.4 to 1 nmol/L), room temperature, 60 minutes. The method, boiled down: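 Crude membranes from 293FT cells transiently expressing human V1b, incubated with [3H]AVP (0.4 to 1 nmol/L) and compound (0.01 nmol/L–1 μmol/L final) in Tris pH 7.4 with MgCl2 and 0.1% BSA, 60 min at room temperature. Bound label collected by filtration. Nonspecific binding defined with unlabeled AVP; IC50 from dose-response curve.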
Human V1b receptor, sequence (P47901 whole entry): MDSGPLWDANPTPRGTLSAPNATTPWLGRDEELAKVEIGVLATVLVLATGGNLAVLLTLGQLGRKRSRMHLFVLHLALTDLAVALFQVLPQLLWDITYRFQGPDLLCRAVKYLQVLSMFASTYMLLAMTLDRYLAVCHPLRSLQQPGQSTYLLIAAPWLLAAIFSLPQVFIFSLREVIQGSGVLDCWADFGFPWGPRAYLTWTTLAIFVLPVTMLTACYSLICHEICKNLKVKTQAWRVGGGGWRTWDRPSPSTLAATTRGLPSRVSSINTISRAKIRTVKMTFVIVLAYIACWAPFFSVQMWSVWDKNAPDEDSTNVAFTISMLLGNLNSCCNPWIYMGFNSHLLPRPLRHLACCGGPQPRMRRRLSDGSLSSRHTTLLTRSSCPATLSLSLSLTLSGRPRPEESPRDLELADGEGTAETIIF

A word on the IC50: it is the concentration that gives 50% inhibition. High values mean lower potency, low ones higher potency.

The compound `CC(C)NC(=O)Cn1cc(-c2ccc(CCN3CCC(O)C3)cc2)nc1-c1cccc(Cl)c1` (stereo not drawn) [Example A-06, 2-[2-(3-chlorophenyl)-4-{4-[2-(3-hydroxypyrrolidin-1-yl)ethyl]phenyl}-1H-imidazol-1-yl]-N-(propan-2-yl)acetamide] returned a concentration for half-maximal inhibition (IC50) of 0.01 to 0.1 µM.

Turning to `CCN(CC)CCc1ccc(-c2cn(CC(=O)NC(C)C)c(-c3ccc(F)c(OC)c3)n2)cc1` [Example A-31, 2-[4-{4-[2-(diethylamino)ethyl]phenyl}-2-(4-fluoro-3-methoxyphenyl)-1H-imidazol-1-yl]-N-(propan-2-yl)acetamide], the IC50 fell in the range of 0.01 to 0.1 µM. `COc1cc(CCN2C3CCC2COC3)ccc1-n1nc(CC(=O)NC(C)C)n(-c2cccc(Cl)c2)c1=O` [Example D-25, 2-[4-(3-chlorophenyl)-1-{2-methoxy-4-[2-(3-oxa-8-azabicyclo[3.2.1]oct-8-yl)ethyl]phenyl}-5-oxo-4,5-dihydro-1H-1,2,4-triazol-3-yl]-N-(propan-2-yl)acetamide] displayed an IC50 of 0.1 to 1 µM. Under `CC1CCN(CCc2ccc(-n3nc(CC(=O)NC(C)C)n(-c4cccc(Cl)c4)c3=O)cc2)CC1` [Example D-49, 2-[4-(3-chlorophenyl)-1-{4-[2-(4-methylpiperidin-1-yl)ethyl]phenyl}-5-oxo-4-,5-dihydro-1H-1,2,4-triazol-3-yl]-N-(propan-2-yl)acetamide] stands 0.1 to 1 µM; under `CC(C)NC(=O)Cn1cc(-c2ccc(CCN3CCOCC3)cc2F)nc1-c1cccc(Cl)c1` [Example A-43, 2-[2-(3-chlorophenyl)-4-{2-fluoro-4-[2-(morpholin-4-yl)ethyl]phenyl}-1H-imidazol-1-yl]-N-(propan-2-yl)acetamide], 0.00049 µM; under `CCC1COCCN1CCc1ccc(-c2nc(-c3cccc(OC)c3)n(CC(=O)NC(C)C)n2)cc1` (stereo not drawn) [Example B-31, 2-[3-{4-[2-(3-ethylmorpholin-4-yl)ethyl]phenyl}-5-(3-methoxyphenyl)-1H-1,2,4-triazol-1-yl]-N-(propan-2-yl)acetamide], 0.01 to 0.1 µM. In the case of `CC(C)NC(=O)Cn1cc(-c2ccc(CCN3CC4(COC4)C3)cc2)nc1-c1cccc(Cl)c1` [Example A-03, 2-[2-(3-chlorophenyl)-4-{4-[2-(2-oxa-6-azaspiro[3.3]hept-6-yl)ethyl]phenyl}-1H-imidazol-1-yl]-N-(propan-2-yl)acetamide], the IC50 is 0.01 to 0.1 µM. Turning to `COc1cc(-n2c(CC(=O)NC(C)(C)C)nn(-c3ccc(CCN4CCOCC4)cc3)c2=O)ccc1F` [Example D-05, N-tert-butyl-2-[4-(4-fluoro-3-methoxyphenyl)-1-{4-[2-(morpholin-4-yl)ethyl]phenyl}-5-oxo-4,5-dihydro-1H-1,2,4-triazol-3-yl]acetamide], the concentration for half-maximal inhibition (IC50) stood at 0.0025 µM.

For `COc1cccc(-c2nc(-c3ccc(CCN4CCCC4)cc3)nn2CC(=O)NC(C)C)c1` [Example B-21, 2-[5-(3-methoxyphenyl)-3-{4-[2-(pyrrolidin-1-yl)ethyl]phenyl}-1H-1,2,4-triazol-1-yl]-N-(propan-2-yl)acetamide], the IC50 was 0.01 to 0.1 µM. Under `CC(C)NC(=O)Cn1cc(-c2ccc(CCN3C4CCC3COC4)cc2)nc1-c1cccc(Cl)c1` [Example A-08, 2-[2-(3-chlorophenyl)-4-{4-[2-(3-oxa-8-azabicyclo[3.2.1]oct-8-yl)ethyl]phenyl}-1H-imidazol-1-yl]-N-(propan-2-yl)acetamide] stands 0.00082 µM; under `COc1cccc(-c2nc(-c3ccc(CCN4CCOCC4)cc3)c(C)n2CC(=O)NC(C)C)c1` [Example A-36, 2-[2-(3-methoxyphenyl)-5-methyl-4-{4-[2-(morpholin-4-yl)ethyl]phenyl}-1H-imidazol-1-yl]-N-(propan-2-yl)acetamide], 0.02 µM; under `COc1cccc(-n2c(CC(=O)NC(C)(C)C)nn(-c3ccc(CCN4C5CCC4COC5)cc3)c2=O)c1` [Example D-07, N-tert-butyl-2-[4-(3-methoxyphenyl)-1-{4-[2-(3-oxa-8-azabicyclo[3.2.1]oct-8-yl)ethyl]phenyl}-5-oxo-4,5-dihydro-1H-1,2,4-triazol-3-yl]acetamide], 0.0055 µM.
